According to ChEMBL document CHEMBL6074634, “Design, synthesis, and evaluation of novel oxyacanthine derivatives for anti-SARS-CoV-2 activity” (Bioorg Med Chem Lett, 2024):

test system: SARS-CoV-2; experiment: Antiviral activity against SARS CoV-2 infected in african green monkey Vero E6 cells assessed as inhibition of viral growth preincubated with cells for 1 hr followed by viral addition for 1 hr with subsequent compound washout and measured after 24 hrs of compound replacement by qRT-PCR analysis; assay type: functional, organism-based; details: Severe acute respiratory syndrome coronavirus 2, Vero C1008

SMILES	IC50 [nM]
COc1cc2c3cc1Oc1c(OC)c(OC)cc4c1[C@H](Cc1ccc(cc1)Oc1cc(ccc1C1CC1)C[C@H]3N(C)CC2)N(C)CC4	2570
COc1ccc(NC(=O)c2ccc3cc2Oc2ccc(cc2)C[C@H]2c4c(cc(OC)c(OC)c4Oc4cc5c(cc4OC)CCN(C)[C@@H]5C3)CCN2C)cc1	620
COc1cc2c3cc1Oc1c(OC)c(OC)cc4c1[C@H](Cc1ccc(cc1)Oc1cc(ccc1C(=O)Nc1ccccc1)C[C@H]3N(C)CC2)N(C)CC4	2820
C=CC(=O)Nc1ccc2cc1Oc1ccc(cc1)C[C@H]1c3c(cc(OC)c(OC)c3Oc3cc4c(cc3OC)CCN(C)[C@@H]4C2)CCN1C	1850
COc1cc2c3cc1Oc1c(OC)c(OC)cc4c1[C@H](Cc1ccc(cc1)Oc1cc(ccc1C(=O)NC1CCCC1)C[C@H]3N(C)CC2)N(C)CC4	1490
COc1cc2c3cc1Oc1c(OC)c(OC)cc4c1[C@H](Cc1ccc(cc1)Oc1cc(cc([N+](=O)[O-])c1)C[C@H]3N(C)CC2)N(C)CC4	720
COc1cc2c3cc1Oc1c(OC)c(OC)cc4c1[C@H](Cc1ccc(cc1)Oc1cc(ccc1C(=O)NC1CC1)C[C@H]3N(C)CC2)N(C)CC4	890
COc1cc2c3cc1Oc1c(OC)c(OC)cc4c1[C@H](Cc1ccc(cc1)Oc1cc(ccc1N)C[C@H]3N(C)CC2)N(C)CC4	> 5000
COc1cc2c3cc1Oc1c(OC)c(OC)cc4c1[C@H](Cc1ccc(cc1)Oc1cc(ccc1C(=O)N1CCCCC1)C[C@H]3N(C)CC2)N(C)CC4	1600
COc1cc2c3cc1Oc1c(OC)c(OC)cc4c1[C@H](Cc1ccc(cc1)Oc1cccc(c1)C[C@H]3N(C)CC2)N(C)CC4	930
COc1cc2c3cc1Oc1c(OC)c(OC)cc4c1[C@H](Cc1ccc(cc1)Oc1cc(cc(N)c1O)C[C@H]3N(C)CC2)N(C)CC4	> 5000
COc1cc2c3cc1Oc1c(OC)c(OC)cc4c1[C@H](Cc1ccc(cc1)Oc1cc(ccc1C(C)=O)C[C@H]3N(C)CC2)N(C)CC4	1480
C=C(C)c1ccc2cc1Oc1ccc(cc1)C[C@H]1c3c(cc(OC)c(OC)c3Oc3cc4c(cc3OC)CCN(C)[C@@H]4C2)CCN1C	1090
COc1cc2c3cc1Oc1c(OC)c(OC)cc4c1[C@H](Cc1ccc(cc1)Oc1cc(ccc1C(=O)Nc1ccc(C(F)(F)F)cc1)C[C@H]3N(C)CC2)N(C)CC4	2780
COC(=O)c1ccc2cc1Oc1ccc(cc1)C[C@H]1c3c(cc(OC)c(OC)c3Oc3cc4c(cc3OC)CCN(C)[C@@H]4C2)CCN1C	840
COc1cc2c3cc1Oc1c(OC)c(OC)cc4c1[C@H](Cc1ccc(cc1)Oc1cc(ccc1C)C[C@H]3N(C)CC2)N(C)CC4	2450
COc1cc2c3cc1Oc1c(OC)c(OC)cc4c1[C@H](Cc1ccc(cc1)Oc1cc(ccc1C(=O)NC15CC6CC(CC(C6)C1)C5)C[C@H]3N(C)CC2)N(C)CC4	1060
COc1cc2c3cc1Oc1c(OC)c(OC)cc4c1[C@H](Cc1ccc(cc1)Oc1cc(ccc1NCc1ccccc1)C[C@H]3N(C)CC2)N(C)CC4	> 5000
COc1cc2c3cc1Oc1c(OC)c(OC)cc4c1[C@H](Cc1ccc(cc1)Oc1cc(ccc1C(=O)NC(C)C)C[C@H]3N(C)CC2)N(C)CC4	1020
COc1cc2c3cc1Oc1c(OC)c(OC)cc4c1[C@H](Cc1ccc(cc1)Oc1cc(ccc1C(=O)O)C[C@H]3N(C)CC2)N(C)CC4	> 5000
CNc1ccc2cc1Oc1ccc(cc1)C[C@H]1c3c(cc(OC)c(OC)c3Oc3cc4c(cc3OC)CCN(C)[C@@H]4C2)CCN1C	> 5000
COc1cc2c3cc1Oc1c(OC)c(OC)cc4c1[C@H](Cc1ccc(cc1)Oc1cc(ccc1C(N)=O)C[C@H]3N(C)CC2)N(C)CC4	550
COc1cc2c3cc1Oc1c(OC)c(OC)cc4c1[C@H](Cc1ccc(cc1)Oc1cc(ccc1C(=O)NCCOCCO)C[C@H]3N(C)CC2)N(C)CC4	2740
COc1cc2c3cc1Oc1c(OC)c(OC)cc4c1[C@H](Cc1ccc(cc1)Oc1cc(ccc1C(=O)Nc1cccnc1)C[C@H]3N(C)CC2)N(C)CC4	940
COc1cc2c3cc1Oc1c(OC)c(OC)cc4c1[C@H](Cc1ccc(cc1)OC1C=C(Cc5[nH]c(=O)oc51)C[C@H]3N(C)CC2)N(C)CC4 (stereo not given in full)	670
CCCCCNC(=O)c1ccc2cc1Oc1ccc(cc1)C[C@H]1c3c(cc(OC)c(OC)c3Oc3cc4c(cc3OC)CCN(C)[C@@H]4C2)CCN1C	2520
COc1cc2c3cc1Oc1c(OC)c(OC)cc4c1[C@H](Cc1ccc(cc1)Oc1cc(ccc1C(=O)NC1CCC1)C[C@H]3N(C)CC2)N(C)CC4	530
CNC(=O)c1ccc2cc1Oc1ccc(cc1)C[C@H]1c3c(cc(OC)c(OC)c3Oc3cc4c(cc3OC)CCN(C)[C@@H]4C2)CCN1C	2510
COc1cc2c3cc1Oc1c(OC)c(OC)cc4c1[C@H](Cc1ccc(cc1)Oc1cc(cc([N+](=O)[O-])c1O)C[C@H]3N(C)CC2)N(C)CC4	> 5000
COc1cc2c3cc1Oc1c(OC)c(OC)cc4c1[C@H](Cc1ccc(cc1)Oc1cc(ccc1O)C[C@H]3N(C)CC2)N(C)CC4 [AROMOLINE]	14500
